According to US20240199555A1, “APPLICATIONS OF BIASED LIGANDS OF THE SEROTONIN 5-HT7 RECEPTOR FOR THE TREATMENT OF PAIN, MULTIPLE SCLEROSIS AND THE CONTROL OF THERMOREGULATION” (Centre National de la Recherche Scientifique, priority 2021, published 2024):

Assays:
h5-HT7R [1] = target: T1, h5-HT7R (Homo sapiens (Human), UniProt P34969); assay: ERK1/2 and c-SRC phosphorylation by western blot in HEK-293 cells stably expressing h5-HT7R; type: cell-based; details: 10 μM of ligand or increasing concentrations, western blot
Method: (A, B, C, D, E, F) Time course of activation of ERK1/2 after stimulation of HEK-293 cells stably expressing h5-HT7R with various 5-HT7R ligands used at 10 μM. The cells were stimulated for the indicated periods and assayed for detection of phospho ERK1/2 by western blot analysis. […] Representative blots of three independent experiments are illustrated. The histogram on the right of each panel represents the results of densitometric analyses of three independent experiments. Data are means±SEM. * p<0.05; ** p<0.01; *** p<0.001 versus non stimulated cells (NS).
HEK-293 cells stably expressing h5-HT7R were stimulated with increasing concentrations of 5-CT or Serodolin for 7 minutes. Cells were lysed, and western blot analysis was performed. Representative Western blots from three independent experiments were shown in A-C. Quantification was performed by densitometric analyses from three independent experiments. Analyzed data were plotted versus log concentration for each compounds (A; B) or as bar graph (C) on the right panel.
Time course of activation of ERK1/2 after stimulation of HEK-293 cells stably expressing h5-HT7R with JLB060, a 5-HT7R ligand used at 10 μM. The cells were stimulated for the indicated periods and assayed for detection of phospho ERK1/2 by western blot analysis.
(§1) Treated cells were washed twice with cold PBS and lysed on ice for 30 min in lysis buffer containing 50 mM Tris pH 7.5, 150 mM NaCl, 10 mM EDTA, 1% Triton X-100 and the protease inhibitor cocktail. Cell lysates were centrifuged at 10,000×g for 10 min. Supernatant was then solubilized in Laemmli buffer with 0.1% β-mercaptoethanol. Samples were resolved by electrophoresis on 10% SDS-PAGE, and transferred electrophoretically to polyvinylidene fluoride (PVDF) membranes (GE Healthcare Life Sciences). […] membranes were washed in Tris-buffered saline (TBS; pH 7.4) containing 0.1% Tween-20 (TBS-T; 0.1%) and blocked with 5% (w/v) dry milk TBS-T 0.1% for 30 min. […] Blots were probed with anti-arrestin, anti-Phospho-ERK or anti-ERK antibody (1:2000), anti Phospho-SRC, anti SRC antibody, anti-HA or anti-GFP or anti-actin antibodies. Horseradish-peroxidase-conjugated goat anti-rabbit, anti-mouse or anti-rat antibodies (1:33,000) were used as secondary antibodies. Immunoreactive bands were detected using the Dura detection kit. Protein quantification on blots was performed using Quantity One software (Biorad).
as §1, with “12%” for “10%”, “with” for “with anti-arrestin,”, “anti-Phospho-ERK (1:2000)” for “anti-Phospho-ERK”, “anti-GAPDH” for “anti-ERK”, “(1:5000). […]” for “(1:2000), anti Phospho-SRC, anti SRC antibody, anti-HA or anti-GFP or anti-actin antibodies. Horseradish-peroxidase-conjugated goat anti-rabbit, anti-mouse or anti-rat antibodies (1:33,000) were used as secondary antibodies.”
ERK phosphorylation was monitored by western blotting after treatment of cells with 10 μM of ligands at different times ranging from 2 to 60 minutes.

human 5-HT7a receptor = human 5-HT7a receptor (Homo sapiens (Human), UniProt P34969); assay: Radioligand binding competition, filtration binding assay, 5-HT7a; details: affinity on 5-HT7 receptor, table of new compounds
Method: (§2) FIG. 14: Testing of 8 molecules for radioligand binding competition activity on recombinant human 5-HT1A, 5-HT2A, 5-HT2Cedited, 5-HT6, 5-HT7 and D2(long) receptors using filtration binding assays.
(§3) Radioligand Binding experiments were conducted with Epics Therapeutics membrane preparations. Receptor accession numbers, cellular background and reference compounds are shown in this table.
Reference values thus obtained for the test were compared to historical values obtained from the same receptor and used to validate the experimental session. For replicate determinations, the maximum variability tolerated in the test was of +/−20% around the average of the replicates.
(§4) Dose-response data from test compounds were analyzed with XLfit (IDBS) software using nonlinear regression applied to a sigmoidal dose-response model and the following equation: • XL Fit fit Model 203: 4 Parameter Logistic Model • A: Bottom • B: TOP • C: LogEC50 • D: Hill

human 5-HT1A receptor = human 5-HT1A receptor (Homo sapiens (Human), UniProt P08908); assay: Radioligand binding competition, 5-HT1A; details: selectivity panel; for IC50: read-out: RLB 5-HT1A IC50; for Ki: read-out: RLB 5-HT1A Ki
Method: as §2, §3
(§5) The new compounds have been tested by radioligand binding competition activity at the human 5-HT1A (FAST-0500B), 5-HT2A (FAST-0505B), 5-HT2Cedited (FAST-0507B), 5-HT6 (FAST-0509B), 5-HT7a (FAST-05111B) and D2(long) (FAST-0101B) receptors at seven (7) concentrations, in duplicate. […] Reference values thus obtained for the test were compared to historical values obtained from the same receptor and used to validate the experimental session. For replicate determinations, the maximum variability tolerated in the test was of +/−20% around the average of the replicates.
as §4

human 5-HT2A receptor = human 5-HT2A receptor (Homo sapiens (Human), UniProt P28223); assay: Radioligand binding competition, 5-HT2A; details: selectivity panel; for IC50: read-out: RLB 5-HT2A IC50; for Ki: read-out: RLB 5-HT2A Ki
Method: as §2, §3, §5, §4

[2] = target: human 5-HT2Cedited receptor (Homo sapiens, UniProt P28335); assay: Radioligand binding competition, 5-HT2Cedited; details: selectivity panel; for IC50: read-out: RLB 5-HT2Cedited IC50; for Ki: read-out: RLB 5-HT2Cedited Ki
Method: as §2, §3, §5, §4

h5-HT7R [3] = target: T1, h5-HT7R; assay: cAMP accumulation (LANCE cAMP detection kit) in HEK-293 cells stably expressing h5-HT7R; type: cell-based; details: tested alone
Method: (B) HEK-293 cells stably expressing h5-HT7R were stimulated with 10 nM of 5-CT and increasing concentrations of products for one hour. After cell lysis, cAMP production was quantified by a LANCE cAMP detection kit (Perkin Elmer). […] Data points represent the means±SEM from three independent experiments performed in triplicate. The EC50 and IC50 for each drug was determined using GraphPad Prism software.
cAMP accumulation was measured with a LANCE™ cAMP detection kit (Perkin-Elmer Life Sciences, Boston, MA, USA). 12 h before experiment cells were starved. Forty-eight h after transfection, cells were harvested in Hank's balanced salt solution (HBSS) containing 5 mM HEPES, 1 mM isobutylmethylxanthine (IBMX) and 0.1% BSA, PH 7.4. After centrifugation (1000×g, 5 min), cells were resuspended in the same buffer (2×10^6 per ml). The ALEXA™ fluor 647 anti-cAMP antibody solution (1 μl) was added to the cell suspension (100 μl) and 5 μl aliquots of the mixture were dispensed in white 384-well microtiter plates (Optiplate, Perkin Elmer). The cells were then stimulated with different drugs. After 1 h incubation at room temperature in the dark, lysis buffer (0.35% Triton X-100, 10 mM CaCl2, 50 mM HEPES) containing LANCE EU-W8044 labeled streptavidin and biotinylated-cAMP was added to the cells (10 μL per well). After 2 h incubation at room temperature in the dark, the plates were read on a VictorV™ microplate reader (Perkin-Elmer Life Sciences). Concentration/response curves were analyzed using Prism 4 software.
HEK-293 fibroblast stably expressing 5-HT7 receptor were used to compare the effect of different 5-HT7R ligands on the classical Gαs-mediated activation of AC pathway. It was decided to evaluate the lead compounds from two series of ligands, Serodolin and MOA-51 (FIG. 1A).

h5-HT7R [4] = target: T1, h5-HT7R; assay: AlphaScreen SureFire phospho-ERK and phospho-c-SRC assays; type: cell-based; details: pretreatment of cells, Serodolin stimulation
Method: FIG. 7: Serodolin induced ERK phosphorylation is dependent on c-SRC activation and requires proline-rich regions on 5-HT7R. […] Cells were lysed, and western blot analysis was performed. (B) The phosphorylation of ERK1/2 as well as phosphorylation of c-SRC were quantified on the same cell lysates using the AlphaScreen assays. Means±SEM of values from three experiments performed in triplicate. (C) The PXXP motif in the C-terminal tail of 5-HT7R has been mutated as described in the upper panel. The corresponding constructs encoding HA-tagged 5-HT7 receptor were transfected in HEK-293 cells as indicated (MutT1, mutT2 and mutT3), then the effect of 5-CT and Serodolin have been evaluated on ERK1/2 and c-SRC activation by Western blot analysis. Representative immunoblots of three independent experiments are illustrated.
The AlphaScreen SureFire phospho-ERK and phosphor-c-SRC assays (PerkinElmer) were used to quantify pERK1/2 and pc-SRC from HEK-293 cell lysates according to the manufacturer's instructions.
(2018) V1b vasopressin receptor trafficking and signaling: Role of arrestins, G proteins and Src kinase. Traffic 19, 58-82; Rey, A., Manen, D., Rizzoli, R., Caverzasio, J., and Ferrari, S. L. (2006) Proline-rich motifs in the parathyroid hormone (PTH)/PTH-related protein receptor C terminus mediate scaffolding of c-Src with beta-arrestin2 for ERK1/2 activation. J Biol Chem 281, 38181-38188). […] To determine whether one of these mechanisms was required for Serodolin-induced ERK phosphorylation, the inventors first evaluated the sensitivity of this activation to the c-SRC-specific tyrosine kinase inhibitor PP2. […]

C57BL/6 mice = assay: Spared Nerve Injury (SNI) neuropathic pain model, Von Frey; details: s.c.
Method: Pregabalin, vehicle or compounds solutions are subcutaneously administrated for 8 consecutive days. • (A) Mechanical response threshold after the first administration (D+10). […] Positive control animals were treated with Pregabalin (5 mg/kg, sc). Statistical differences are indicated compared to vehicle group (Two-way RM ANOVA followed by Bonferroni post-hoc test: ***p<0.001, ** p<0.01, * p<0.05). […] Positive control animals were treated with Pregabalin (5 mg/kg, sc). Statistical differences are indicated compared to vehicle group (Two-way RM ANOVA followed by Bonferroni post-hoc test: ***p<0.001, ** p<0.01, * p<0.05). […] (Two-way RM ANOVA followed by Bonferroni post-hoc test: ***p<0.001, ** p<0.01, * p<0.05)
MOA51 and Serodolin (AIC01) compounds were diluted in NDT solution (NaCl 0.9%—DMSO 20%—Tween80 5%). […] AIC01 was resuspended at 0.5 mg/mL and administrated at a ratio of 100 μl per 10 g (dose of 5 mg/kg).
Experiment starts with 8 weeks old male C57B16J mice (from Charles River). Study was performed on 40 mice (2 mice were excluded during the study due to health guidelines) divided in 4 randomized groups. • Group A: s.c. injection at 5 mg/kg of pregabalin. • Group B: s.c. injection at 0.5 mg/kg of MOA51. • Group C: s.c. injection at 5 mg/kg of Serodolin (AIC01). • Group D: s.c. injection of NDT solution (referred as Vehicle hereafter).
Compounds solutions, pregabalin and vehicle were subcutaneously administrated (100 μl/10 g) for 9 consecutive days, starting 10 days after surgery. Ligature and transection of the common peroneal and tibial distal branches of the sciatic nerve was made leaving the sural branch intact. 7 days post-surgery, a decrease of threshold response to Von Frey filaments of ipsilateral hind-paw was observed corresponding to neuropathic pain apparition (mechanical allodynia). Mechanical threshold response of mice were measured with calibrated Von Frey filaments using the up/down method. Experimenter was blind to mice treatment. Measures are performed as follow: one baseline measure before surgery, one measure at D+10, D+12, D+14, D+16 and D+18 before drug's administration, and 1 h, 2 h post-drug administration. A supplementary measure 4 h post-drug administration was performed at D+10 and D+18.
Two-way RM ANOVA (followed by Bonferroni post-hoc test) was used to analysed time course response at D+10 and D+18. Area under the curve was determined with the 1 h and 2 h post-drug administration measures to investigated tolerance of repeated administration of compounds

human 5-HT1A receptor, sequence (P08908 whole entry): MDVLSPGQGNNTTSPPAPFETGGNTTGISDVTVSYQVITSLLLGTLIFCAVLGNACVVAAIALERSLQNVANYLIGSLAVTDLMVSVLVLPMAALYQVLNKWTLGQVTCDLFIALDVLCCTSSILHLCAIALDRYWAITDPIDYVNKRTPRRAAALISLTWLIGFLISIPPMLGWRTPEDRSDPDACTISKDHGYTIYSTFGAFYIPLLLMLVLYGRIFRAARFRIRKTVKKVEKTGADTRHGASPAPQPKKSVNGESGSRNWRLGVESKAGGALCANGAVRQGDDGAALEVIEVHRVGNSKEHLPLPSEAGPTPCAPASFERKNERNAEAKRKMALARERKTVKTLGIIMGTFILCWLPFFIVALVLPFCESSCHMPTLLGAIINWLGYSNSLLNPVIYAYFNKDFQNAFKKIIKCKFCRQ
T1 sequence (P34969 1-432): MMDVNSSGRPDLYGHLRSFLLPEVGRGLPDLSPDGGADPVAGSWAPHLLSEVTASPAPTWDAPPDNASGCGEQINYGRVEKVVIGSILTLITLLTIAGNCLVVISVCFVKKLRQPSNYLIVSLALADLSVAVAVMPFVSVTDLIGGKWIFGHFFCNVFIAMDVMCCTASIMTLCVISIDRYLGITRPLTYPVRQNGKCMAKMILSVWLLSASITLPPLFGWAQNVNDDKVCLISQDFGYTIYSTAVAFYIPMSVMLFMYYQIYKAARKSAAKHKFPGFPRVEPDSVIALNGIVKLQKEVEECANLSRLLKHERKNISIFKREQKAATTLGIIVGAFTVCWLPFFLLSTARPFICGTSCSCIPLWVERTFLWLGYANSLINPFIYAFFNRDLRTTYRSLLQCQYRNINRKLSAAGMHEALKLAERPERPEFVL
human 5-HT7a receptor, sequence (P34969 other isoform, or with tags, fused parts or gaps): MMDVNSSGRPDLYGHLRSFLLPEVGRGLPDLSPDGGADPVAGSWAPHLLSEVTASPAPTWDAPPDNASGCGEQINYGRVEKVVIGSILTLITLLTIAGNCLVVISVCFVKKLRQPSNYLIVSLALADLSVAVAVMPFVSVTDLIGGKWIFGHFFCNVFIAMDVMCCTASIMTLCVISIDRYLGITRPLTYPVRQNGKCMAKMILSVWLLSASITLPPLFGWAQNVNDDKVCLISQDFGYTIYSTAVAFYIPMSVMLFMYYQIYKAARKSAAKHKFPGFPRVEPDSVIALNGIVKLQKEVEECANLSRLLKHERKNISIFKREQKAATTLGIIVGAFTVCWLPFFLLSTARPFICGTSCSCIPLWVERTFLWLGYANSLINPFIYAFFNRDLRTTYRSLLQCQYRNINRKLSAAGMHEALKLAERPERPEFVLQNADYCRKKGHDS
human 5-HT2A receptor, sequence (P28223 whole entry): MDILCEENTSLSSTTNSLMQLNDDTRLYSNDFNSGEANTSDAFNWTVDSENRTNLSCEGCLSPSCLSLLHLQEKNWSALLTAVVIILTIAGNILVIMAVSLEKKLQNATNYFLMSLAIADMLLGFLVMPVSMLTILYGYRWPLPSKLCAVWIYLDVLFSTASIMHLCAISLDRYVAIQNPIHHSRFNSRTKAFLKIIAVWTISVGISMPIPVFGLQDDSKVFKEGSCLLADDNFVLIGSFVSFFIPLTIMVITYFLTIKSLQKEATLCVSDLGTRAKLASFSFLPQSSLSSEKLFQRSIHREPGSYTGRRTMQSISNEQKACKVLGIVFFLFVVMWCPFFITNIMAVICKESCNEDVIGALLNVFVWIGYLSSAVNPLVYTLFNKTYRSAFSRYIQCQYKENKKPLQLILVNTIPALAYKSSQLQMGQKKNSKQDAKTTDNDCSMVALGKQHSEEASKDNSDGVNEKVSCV
human 5-HT2Cedited receptor, sequence (P28335 33-458 limits assumed): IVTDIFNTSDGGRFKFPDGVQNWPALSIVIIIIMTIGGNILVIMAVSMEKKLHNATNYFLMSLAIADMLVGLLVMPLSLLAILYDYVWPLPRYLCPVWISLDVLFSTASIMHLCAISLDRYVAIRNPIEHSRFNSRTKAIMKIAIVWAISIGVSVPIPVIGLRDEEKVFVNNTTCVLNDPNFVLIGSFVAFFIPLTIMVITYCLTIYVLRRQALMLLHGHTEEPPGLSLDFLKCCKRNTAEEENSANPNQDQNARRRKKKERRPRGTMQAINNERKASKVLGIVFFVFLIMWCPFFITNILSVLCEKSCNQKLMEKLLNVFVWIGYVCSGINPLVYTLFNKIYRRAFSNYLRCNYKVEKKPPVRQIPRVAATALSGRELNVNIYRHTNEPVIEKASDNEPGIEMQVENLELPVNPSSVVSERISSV

SMILES | induction of ERK phosphorylation (h5-HT7R [1]) | IC50 (human 5-HT7a receptor) | Ki (human 5-HT7a receptor) | IC50 (human 5-HT1A receptor) | Ki (human 5-HT1A receptor) | IC50 (human 5-HT2A receptor) | Ki (human 5-HT2A receptor) | IC50 [2] | Ki [2] | block of Serodolin-induced ERK phosphorylation (h5-HT7R [4]) | other results
O=C1Nc2cccc3c2C1(CCCCN1CC=C(c2ccccc2)CC1)CCC3 (stereo not drawn) [DR4004, reference compound] | none of them were able to induce ERK activation | – | – | – | – | – | – | – | – | – | –
O=c1[nH]c2ccccc2n1CCCCCN1CCCN(c2ccc(F)cc2)CC1 [JLB060] | robustly induce ERK phosphorylation | 0.00098 µM | 0.00069 µM | 0.85 µM | 0.425 µM | 0.137 µM | 0.023 µM | 0.902 µM | 0.148 µM | – | –
O=C(c1ccc(F)cc1)C1CCN(CCCCn2c(=O)[nH]c3ccccc32)CC1 [MOA51] | – | 0.00029 µM | 0.0002 µM | 0.885 µM | 0.442 µM | 0.00329 µM | 0.00054 µM | 0.699 µM | 0.115 µM | – | inhibition of cAMP production when tested alone (inverse agonist effect) (h5-HT7R [3]): around 75%
CC(C)(C)n1nc(-c2ccc(Cl)cc2)c2c(N)ncnc21 [PP2] | – | – | – | – | – | – | – | – | – | 99% | block of Serodolin-induced c-SRC phosphorylation (h5-HT7R [4]): 100%
Nc1ncnc2c1cnn2-c1ccccc1 [PP3] | – | – | – | – | – | – | – | – | – | inactive | –
CC(C)C[C@H](CN)CC(=O)O [Pregabalin, reference compound] | – | – | – | – | – | – | – | – | – | – | tolerance after repetitive administration (AUC) (C57BL/6 mice; 9 consecutive days): significant decrease of the analgesic effect; mechanical response threshold vs vehicle (C57BL/6 mice; first (D+10) and last (D+18) administration, 1 h and 2 h): significant increase of the mechanical response threshold
